Data published in US6767569B1, “Surface decontamination of cooked sausage and processed meat and poultry products” (priority 1999, dated 2004).
“And” between values parts separate entries of the source, which are not always exact repeats. Identical values can stand only once. Marks after values point to notes of the source that are not given here.

Tests used:
Listeria monocytogenes = experiment: Dip treatment of Listeria monocytogenes-inoculated frankfurters, quantitative plating on MOX agar; format: cell-based
Experimental: A five-strain mixture of Listeria monocytogenes was used for purposes of inoculation. To prepare this mixture, five strains of L. monocytogenes were grown individually in tryptic soy broth (TSB), for 48±2 h at 30° C. Equivalent aliquots of broth from each strain were then combined in a sterile test tube to achieve a mixed inoculum containing approximately equal populations of each of the five strains. The mixed culture was diluted as appropriate using 0.1% peptone diluent to achieve a final mixed inoculum with a cell density of approximately 10,000 colony forming units (cfu)/ml.
Packages of commercially prepared beef frankfurter sausages (“franks”) were obtained from a local retail outlet. The packages were stored at 4° C. until use (no more than 24 hours). Immediately prior to testing, the franks were removed from the commercial packaging and placed on a sterile surface in a biological safety cabinet. The franks were oriented on the surface such that no franks were in contact with each other. Using a micropipette, each individual frank (except for those used as controls) was inoculated with 0.1 ml of the previously prepared mixed inoculum with a target inoculation level of 1,000 cfu/frank. A sterile bent rod was used to spread the inoculum over the frank surface as evenly as possible. Inoculated franks were allowed to remain undisturbed on the sterile surface for at least 5 minutes prior to treatment with the decontaminant solution. Three franks were inoculated per treatment to be evaluated, one frank being tested without inoculation.
The peracetic acid used in the evaluation was obtained as a 35% concentrate under the trade name STERIS 20™ Sterilant Concentrate from STERIS Corporation (Mentor, Ohio). The concentrate was used without the buffers or other additives supplied by the manufacturer. The concentrate was diluted to appropriate nominal concentrations (100, 500, and 1000 ppm). Approximately 1 L of each concentration to be evaluated was prepared in sanitized 2 L, plastic containers. Additionally, 1 L of a control treatment, namely sterile distilled water (0 ppm peracetic acid), was also prepared in a 2 L container. Each of these four concentrations was evaluated using two exposure times, 2 and 10 seconds. Therefore, a total of eight treatments (four peracetic acid concentrations (0, 100, 500, and 1000 ppm) at two exposure times (2 and 10 seconds) were evaluated in this study. Each test was carried out two or more times for establishing reproducibility.
All peracetic acid treatments were performed inside a biological safety cabinet. Inoculated franks were dipped into the peracetic acid treatment solution (or distilled water for the 0 ppm samples) and allowed to remain submerged for either 2 or 10 seconds. Sterile utensils were employed to remove the franks from the treatment solution and transfer them to a sterile distilled water rinse. Franks were then submerged in a sterile water rinse and remained submerged for 2 or 10 seconds (i.e., the same time as they were exposed to the peracetic acid solution) and were removed with sterile utensils. Immediately after removal from the sterile water rinse, the franks were placed on a sterile surface and allowed to air dry for 5 minutes.
Following air drying, one frank per treatment was placed in a sterile Stomacher bag and analyzed quantitatively for residual L. monocytogenes populations. The remaining two franks were retained in sterile Stomacher bags and used for qualitative analysis, if necessary (in the event no surviving cells were detected using quantitative procedures).
To determine the number of surviving L. monocytogenes cells (quantitative evaluation), one frank per treatment was analyzed. The weight of the frank was determined and an appropriate volume of 0.1% peptone diluent added to achieve a 1:5 dilution. These samples were homogenized for 2 minutes using a Stomacher Lab Blender. […]

microorganism = experiment: Contacting the surfaces of the food product with peracetic acid solution; format: cell-based; details: 1,000 ppm peracetic acid solution for 12 seconds at 8 °C
Excerpt: The decontaminant solution preferably contains from about 500 to about 4,000 ppm of peracetic acid. The optimal concentration depends an the length of time to which the food products are exposed to the decontaminant solution and on the temperature of the decontaminant solution. […] For ensuring complete elimination of resistant microorganisms, such as Listeria, longer times and/or higher peracetic acid concentrations are preferred. Preferred peracetic acid concentrations are from about 1000 to about 2,000 ppm for contact times of 30 seconds to 1 minute to ensure complete kill of Listeria and other undesirable microorganisms at temperatures of from about 8-20° C. Microbiological analysis procedures are carried out periodically on samples of the treated frankfurters to ensure that the conditions used are maintaining a 100% kill of Listeria or other selected microorganisms.

## CC(=O)OO [peracetic acid]
Listeria monocytogenes; PAA 100 ppm (actual 114 ppm), 2 sec exposure followed by 2 sec deionized water rinse
  After treatment (CFU/frank): 180 CFU/frank and <90* CFU/frank and 90 CFU/frank
Listeria monocytogenes; PAA 100 ppm (actual 114 ppm), 2 sec exposure followed by 2 sec deionized water rinse, listed as PAA
  After treatment (CFU/frank): at least 90 CFU/frank
Listeria monocytogenes; PAA 100 ppm (actual 114 ppm), 10 sec exposure followed by 10 sec deionized water rinse, target inoculation 1,000 CFU/frank
  After treatment (CFU/frank): <90* CFU/frank and 180 CFU/frank
Listeria monocytogenes; PAA 100 ppm (actual 114 ppm), 10 sec exposure followed by 10 sec deionized water rinse, target inoculation 1,000 CFU/frank, listed as PAA
  After treatment (CFU/frank): at least 90 CFU/frank
Listeria monocytogenes; PAA 500 ppm (actual 572 ppm), 2 sec exposure followed by 2 sec deionized water rinse
  After treatment (CFU/frank): <90* CFU/frank and 90 CFU/frank
Listeria monocytogenes; PAA 500 ppm (actual 572 ppm), 2 sec exposure followed by 2 sec deionized water rinse, listed as PAA
  After treatment (CFU/frank): < 90 CFU/frank
Listeria monocytogenes; PAA 500 ppm (actual 572 ppm), 10 sec exposure followed by 10 sec deionized water rinse
  After treatment (CFU/frank): <90* CFU/frank
Listeria monocytogenes; PAA 500 ppm (actual 572 ppm), 10 sec exposure followed by 10 sec deionized water rinse, listed as PAA
  After treatment (CFU/frank): less than the detection limit of the quantitative plating procedure
Listeria monocytogenes; PAA 1000 ppm (actual 1146 ppm), 2 sec exposure followed by 2 sec deionized water rinse
  After treatment (CFU/frank): <90* CFU/frank
Listeria monocytogenes; PAA 1000 ppm (actual 1146 ppm), 2 sec exposure followed by 2 sec deionized water rinse, listed as PAA
  After treatment (CFU/frank): < 90 CFU/frank
Listeria monocytogenes; PAA 1000 ppm (actual 1146 ppm), 10 sec exposure followed by 10 sec deionized water rinse
  After treatment (CFU/frank): <90* CFU/frank
Listeria monocytogenes; PAA 1000 ppm (actual 1146 ppm), 10 sec exposure followed by 10 sec deionized water rinse, listed as PAA
  After treatment (CFU/frank): < 90 CFU/frank
microorganism
  reduction in the number of microorganism: six log reduction
